Non-standard residues stand in square brackets, D forms with d. Residues, ends and D or L forms follow the SMILES beside them. N(NBD)Gly = O=C(O)CNc1ccc([N+](=O)[O-])c2nonc12
What was measured:
RAW 264.7 cells [1] = experiment: Internalisation of NBD-labelled peptides, flow cytometry with dithionite quench; type: cell-based, murine; settings: increasing concentrations of NBD-labelled peptide, 2 h at 37 °C, DMEM 10% FCS, FACS, average of three independent experiments
Method: (§1) HeLa or RAW 264.7 cells were cultured at 37 °C, 10% CO2, in Dulbecco's modified Eagle's medium (DMEM) (Invitrogen), containing 10% foetal calf serum (FCS, Harlan), 100 U/ml penicillin and 100 μg/ml streptomycin. Quantification of internalisation of NBD-labelled peptides was carried out according to the procedure described by [Drin et al. (2001)]. Briefly, cells were seeded in six-well plates (5 × 10^5 cells/well) and treated with 0–160 μM of peptide for 2 h at 37 °C. Cells were washed twice in PBS, harvested using a solution of Versene (1:500) (Invitrogen) and re-suspended in 0.5 ml (final volume) of ice-cold PBS. Cells were analysed by flow cytometry using a Becton Dickinson FACS Scan instrument and the geometric mean of fluorescence intensity was considered to represent the amount of cell-associated peptide. Following flow cytometry, 5 μl of freshly prepared dithionite stock solution (1 M Na2S2O4 in 1 M Tris–HCl (pH 10)) was added to cells maintained at 4 °C for 5 min and analysed again with flow cytometry to measure residual fluorescence. Fluorescence from cells treated with dithionite only was subtracted from the fluorescence of cell-associated or internalised peptides to infer background values.

HeLa cells = experiment: as above; type: cell-based, human; settings: NBD-labelled peptide 10, 40 and 160 μM, 2 h at 37 °C, DMEM 10% FCS, FACS geometric mean fluorescence, dithionite-only background subtracted, average of three independent experiments
Method: as §1

RAW 264.7 cells [2] = experiment: Cell viability, CellTiter-Glo Luminescent Assay; type: cell-based, murine; settings: RAW 264.7, 10, 40 and 160 μM peptide, incubation 2, 4, 8 and 18 h
From the text: CellTiter-Glo Luminescent Assay (Promega) was utilised to determine viability of RAW 264.7 cells following treatment with peptides, according to the manufacturer's instructions.

| SMILES | Internalised peptide, mean cell fluorescence after sodium dithionite quencher (RAW 264.7 cells [1]) | Internalised peptide, mean cell fluorescence after sodium dithionite quencher (HeLa cells) | Cellular viability (RAW 264.7 cells [2]) |
| --- | --- | --- | --- |
| CSCC[C@H](NC(=O)[C@H](CCCCN)NC(=O)CNc1ccc([N+](=O)[O-])c2nonc12)C(=O)N[C@@H](C)C(=O)N[C@@H](CC(=O)O)C(=O)N[C@@H](Cc1c[nH]c2ccccc12)C(=O)N[C@@H](Cc1ccccc1)C(=O)N[C@@H](CCCNC(=N)N)C(=O)N[C@@H](CCC(N)=O)C(=O)N[C@H](C(=O)N[C@@H](CC(C)C)C(=O)N[C@@H](CC(C)C)C(=O)N[C@@H](C)C(=O)N[C@@H](C)C(=O)N1CCC[C@H]1C(=O)N[C@@H](C)C(=O)N[C@@H](C)C(=O)N[C@@H](C)C(=O)N1CCC[C@H]1C(=O)N[C@@H](CC(N)=O)C(=O)N[C@@H](CO)C(=O)N1CCC[C@H]1C(=O)N[C@@H](CCC(=O)O)C(=O)N[C@@H](CO)C(=O)N[C@H](C(N)=O)[C@@H](C)O)[C@@H](C)O [NBD-TIRAP^Ala] (H-[N(NBD)Gly]KMADWFRQTLLAAPAAAPNSPEST-NH2) | substantially less fluorescent | substantially less fluorescent |  |
| C[C@H](NC(=O)[C@H](C)NC(=O)[C@H](CCC(N)=O)NC(=O)[C@H](C)NC(=O)[C@H](C)NC(=O)[C@H](CCCCN)NC(=O)[C@H](CCCCN)NC(=O)[C@H](CCCNC(=N)N)NC(=O)CNc1ccc([N+](=O)[O-])c2nonc12)C(=O)N[C@@H](C)C(=O)N1CCC[C@H]1C(=O)N1CCC[C@H]1C(=O)N[C@@H](CCC(N)=O)C(N)=O [TAT^Ala, reference compound] (H-[N(NBD)Gly]RKKAAQAAAPPQ-NH2) |  | very little fluorescence |  |
| CC[C@H](C)[C@H](NC(=O)[C@H](C)NC(=O)CNC(=O)CNC(=O)[C@@H]1CCCN1C(=O)[C@@H](NC(=O)[C@H](C)NC(=O)[C@H](CC(=O)O)NC(=O)[C@H](CCCNC(=N)N)NC(=O)[C@H](CC(C)C)NC(=O)[C@H](CCC(N)=O)NC(=O)[C@H](CC(C)C)NC(=O)[C@@H](NC(=O)[C@H](CO)NC(=O)[C@H](CCC(=O)O)NC(=O)[C@@H]1CCCN1C(=O)[C@H](CO)NC(=O)[C@H](CC(N)=O)NC(=O)[C@@H]1CCCN1C(=O)[C@H](CCCNC(=N)N)NC(=O)[C@H](CCCCN)NC(=O)[C@H](CCCCN)NC(=O)[C@@H]1CCCN1C(=O)[C@H](CCCCN)NC(=O)[C@H](CCCCN)NC(=O)[C@H](CC(C)C)NC(=O)[C@H](CC(C)C)NC(=O)[C@@H](NC(=O)[C@H](CCC(N)=O)NC(=O)[C@H](CCCNC(=N)N)NC(=O)[C@H](Cc1ccccc1)NC(=O)[C@H](Cc1c[nH]c2ccccc12)NC(=O)[C@H](CC(=O)O)NC(=O)[C@H](C)NC(=O)[C@H](CCSC)NC(=O)[C@H](CCCCN)NC(=O)CN)[C@@H](C)O)[C@@H](C)O)[C@@H](C)O)C(=O)N[C@H](C(=O)N[C@@H](CO)C(N)=O)C(C)C [TBX2] (H-GKMADWFRQTLLKKPKKRPNSPESTLQLRDATPGGAIVS-NH2) |  |  | no significant reduction in cellular viability |
| CSCC[C@H](NC(=O)[C@H](CCCCN)NC(=O)CNc1ccc([N+](=O)[O-])c2nonc12)C(=O)N[C@@H](C)C(=O)N[C@@H](CC(=O)O)C(=O)N[C@@H](Cc1c[nH]c2ccccc12)C(=O)N[C@@H](Cc1ccccc1)C(=O)N[C@@H](CCCNC(=N)N)C(=O)N[C@@H](CCC(N)=O)C(=O)N[C@H](C(=O)N[C@@H](CC(C)C)C(=O)N[C@@H](CC(C)C)C(=O)N[C@@H](CCCCN)C(=O)N[C@@H](CCCCN)C(=O)N1CCC[C@H]1C(=O)N[C@@H](CCCCN)C(=O)N[C@@H](CCCCN)C(=O)N[C@@H](CCCNC(=N)N)C(=O)N1CCC[C@H]1C(=O)N[C@@H](CC(N)=O)C(=O)N[C@@H](CO)C(=O)N1CCC[C@H]1C(=O)N[C@@H](CCC(=O)O)C(=O)N[C@@H](CO)C(=O)N[C@H](C(N)=O)[C@@H](C)O)[C@@H](C)O [TIRAP] (H-[N(NBD)Gly]KMADWFRQTLLKKPKKRPNSPEST-NH2) | cell permeable properties | cell permeable properties |  |

From publication PMC2656996, “Functional cell permeable motifs within medically relevant proteins” (Journal of Biotechnology, 2007)
